Here are results for 6 molecules from patent US20060116518A1, “Novel phenanthridines” (Altana Pharma AG, priority 2002, published 2006).

The structures appear in SMILES notation.

As usually defined, the melting point is the temperature of the solid-liquid transition. The molecule `CCN(CC)C(=N)NC(=O)c1ccc(C2=N[C@@H]3CCCC[C@@H]3c3cc(OC)c(OC)cc32)cc1` [Compound 1, N′-{-[4-((4aR,10bR)-8,9-Dimethoxy-1,2,3,4,4a,10b-hexahydrophenanthridin-6yl)-phenyl]-methanoyl}-N,N-diethylquanidine] showed a melting point of 132 to 135 °C.
Under `COc1cc2c(cc1OC)C1CCCCC1N=C2c1ccc(C(=O)NC(=N)N2CCN(C)CC2)cc1` (stereo not drawn) [Compound 5] stands 133 °C.
Under `COc1cc2c(cc1OC)C1CCCCC1N=C2c1ccc(C(=O)NC(=N)N2CCCC2)cc1` [Compound 9, 4-((4aR,10bR)-8,9-Dimethoxy-1,2,3,4,4a.10b-hexahydro-phenanthridin-6-yl)-N-(1-imino-1-pyrrolidin-1-yl-methyl)-benzamide] stands 126 °C; under `COc1cc2c(cc1OC)[C@H]1CCCC[C@H]1N=C2c1ccc(C(=O)NC(=N)n2nc(C)cc2C)cc1` [Compound 11, 4((4aR,10bR)-8,9-Dimethoxy-1,2,3,4,4a,10b-hexahydro-phenanthridin-6-yl)-N-[1-(3,5-dimethyl-pyrazol-1-yl)-1-imino-methyl]-benzamide], 179 to 180 °C; under `CCN(CC)C(=N)NC(=O)c1cccc(C2=NC3CCCCC3c3cc(OC)c(OC)cc32)c1` [Compound 12, N′-{1[3-((4aR,10bR)-8,9-Dimethoxy-1,2,3,4,a,10b-hexahydrophenanthridin-6-yl)-phenyl]-methanoyl}-N,N-diethylquanidine], 89 to 91 °C.
As to `COc1cc2c(cc1OC)[C@H]1CCCC[C@H]1N=C2c1cccc(C(=O)NC(=N)N2CCOCC2)c1` [Compound 13, 3-((4aR,10bR)-8,9-Dimethoxy-1,2,3,4,4a,10b-hexahydrophenanthridin-6-yl)-N-(1-imino-1-morpholin-4yl-methyl)-benzamide], the melting point is 187 to 188 °C.
